{"source": "patent US20240043531A1", "about": "“ANTI-CD47 MONOCLONAL ANTIBODY AND USE THEREOF” (Akeso Biopharma, Inc., priority 2021, published 2024)", "molecules": {"B1": {"name": "anti-CD47 monoclonal antibody 6F7 (secreted by hybridoma cell line LT012) (antibody, V domains shown)", "VH": "QVQLQQPGAELVRPGASVKLSCKASGYTFTSYWMNWVKQRPGQGLEWIGMIDPSDSETHNNQMFKDKATLTVDKSSNTAYMHLSSLTSEDSAVYHCARLYRWYFDVWGAGTTVTVSS", "VL": "NIVMTQSPKSMSMSLGERVTLSCKASEIVGTYVSWFQQKPHQSPKLLIYGASNRYTGVPDRFTGSGSATDFTLTISNVQAEDLADYHCGQSYNFPYTFGGGTKLEIK", "notes": "Murine hybridoma antibody; also called CD47-6F7; LT012 antibody"}, "B2": {"name": "6F7: murine anti-CD47 monoclonal antibody secreted by hybridoma LT012; VH SEQ ID NO: 2, VL SEQ ID NO: 4 (antibody, V domains shown)", "VH": "B1 VH", "VL": "B1 VL", "modifications": "Synthetic artificial sequence-Amino acid sequence of the heavy chain variable region of 6F7; Synthetic artificial sequence-Amino acid sequence of the variable region of the light chain of 6F7"}}, "key": {"[1]": {"system": "acute myelocytic leukemia (AML) HL-60 cells", "test": "ADCP: phagocytosis of HL-60 cells by HPMMs, combination with azacitidine", "format": "cell-based, human", "conditions": "HPMMs effector, HL-60 target cells treated with azacitidine 3 μM or 1 μM for 24 h; antibodies 10 μg/mL and 1 μg/mL; FIG. 2", "from_the_text": "(§1) Materials: Azacitidine (purchased from Baxter Oncology GmbH); Hu5F9-G4 (supplied by Akeso Biopharma, Inc.); Raji cells (Chinese Academy of Sciences Shanghai Branch); HL-60 cells (ATCC); RPMI 1640 (Gibco, Cat. No: 22400-105); pancreatin (0.25% Typsin-EDTA (1×)) (Gibco, Cat. No: 25200072); fetal bovine serum (FBS; Excell bio, Cat. No: FSP500); fluorescent dye […] diacetatesuccinimidyl ester (CFSE; Biolegend, Cat. No: 423801); recombinant human macrophage colony-stimulating factor (human M-CSF; PeproTech, Cat. No: 300-25); APC anti-human CD11c antibody (Biolegend, Cat. No: 301614); isotype control (human IgG4; supplied by Akeso Biopharma, Inc.); rituximab (Roche); BSA (Sigma, Cat. No: V900933-1KG); Ficoll paque plus (GE, Cat. No: 17-1440-02). Human peripheral monocyte-derived macrophages (HPMMs) were prepared by inducing PBMCs. Frozen PBMCs were conventionally thawed and incubated in an incubator overnight. […]\nProcedures: HL-60 cells were conventionally collected and plated in a 6-well plate at 4×10^5 cells/2 mL of 1640 complete medium per well. […] The next day, the treated and blank HL-60 cells were collected, centrifuged at 170×g for 5 min, resuspended and counted. Then the cells were analyzed for viability and washed once with PBS. […]"}, "[2]": {"system": "human ovarian cancer SK-OV-3 cells", "test": "Immune cell activation: PBMCs with Raji-PDL1 and SK-OV-3 cells, cytokine ELISA", "format": "cell-based", "conditions": "SEB-activated PBMCs + Raji-PDL1 + SK-OV-3 cells, 3 days; FIG. 5"}, "[3]": {"system": "human lung adenocarcinoma A549 cells", "test": "Immune cell activation: PBMCs with Raji-PDL1 and A549 cells, cytokine ELISA", "format": "cell-based", "conditions": "SEB-activated PBMCs + Raji-PDL1 + A549 cells, 3 days; FIG. 4"}, "[4]": {"system": "human prostate cancer LNCAP cells", "test": "Immune cell activation: PBMCs with Raji-PDL1 and LNCAP cells, cytokine ELISA", "format": "cell-based", "conditions": "SEB-activated PBMCs + Raji-PDL1 + LNCAP cells, 3 days; FIG. 6"}, "[5]": {"system": "Burkitt's lymphoma Raji cells", "test": "ADCP: phagocytosis of Raji cells by HPMMs, combination with rituximab", "format": "cell-based, human", "conditions": "HPMMs effector, Raji target cells, 37° C. 2 h, flow cytometry; FIG. 1", "from_the_text": "as §1, with “overnight. The next day, PBMCs were collected, centrifuged at 170×g for 5 min, resuspended in a 1640 medium containing 2% FBS, and incubated in an incubator for 2 h.” for “overnight.”\nProcedures: Raji cells in the logarithmic phase were conventionally collected, centrifuged at 170×g for 5 min, resuspended and then washed once with PBS. […] 200 μL of 1% PBSA was added to each tube for resuspension, and the cells were detected on an FACS Calibur flow cytometer. […]"}, "[6]": {"target": "T1, CD47 IgV TEV-His (human CD47 mature peptide of positions 19-141 of NP_942088.1, TEV, his tag fusion protein) (human, UniProt Q08722 19-141)", "T1 construct": "range 19-141; Synthesized by Akeso Biopharma; not shown: his tag", "test": "indirect ELISA screening with CD47 IgV TEV-His as antigen", "from_the_text": "Spleen cells of immunized mice were fused with myeloma cells of the mice to prepare hybridoma cells."}, "CD47 IgV TEV-His": {"target": "T2, CD47 IgV TEV-His (Homo sapiens, UniProt Q08722)", "T2 construct": "human CD47 mature peptide of positions 19-141 of GenbankID: NP 942088.1; His tag (C); host or cells: mammalian cell expression system (said in general terms)", "test": "Indirect ELISA screening for antibodies specifically binding CD47", "conditions": "monoclonal antibody secreted by hybridoma LT012", "from_the_text": "(§2) The antigen used for preparing the anti-CD47 antibody with the hybridoma cell line 6F7 was CD47 IgV TEV-His (including human CD47 mature peptide of positions 19-141 of GenbankID: NP 942088.1 and TEV (amino acid sequence: ENLYFQG, SEQ ID NO: 74)-his tag fusion protein, synthesized by Akeso Biopharma, Inc.) and 3T3-CD47 cells (NIH/3T3, manufacturer: ATCC, Cat. No: CRL-1658; the human CD47 mature peptide was transfected into the cells on the basis of NIH/3T3 to construct a cell line stably expressing 3T3-CD47). Spleen cells of immunized mice were fused with myeloma cells of the mice to prepare hybridoma cells. […] The hybridoma cells obtained by ELISA screening were screened by competitive ELISA to obtain a hybridoma cell line capable of secreting a monoclonal antibody capable of competing for binding to CD47 IgV TEV-His with the receptor human SIRPαECD-hFc-Biotin (SIRPαECD refers to the extracellular region of SIRPα, positions 31-373 of protein GenBank ACCESSION No. NP_542970.1; hFc refers to a human IgG Fc purification label, specifically to Ig gamma-1 chain C region, positions 114-330 of GenbankID: P01857), which was then subjected to dilution cloning to obtain a stable hybridoma cell line. The hybridoma cell line was designated hybridoma cell line LT012, and the monoclonal antibody secreted by the cell line was designated 6F7."}, "[7]": {"target": "T3, CD47 IgV TEV-His / human SIRPαECD-hFc-Biotin (Homo sapiens, UniProt Q08722)", "T3 construct": "human CD47 mature peptide of positions 19-141 of GenbankID: NP 942088.1; His tag (C); host or cells: mammalian cell expression system (said in general terms, for CD47 only)", "test": "Competitive ELISA against receptor SIRPα ECD-hFc-Biotin for binding to CD47", "from_the_text": "as §2"}}, "data": [{"molecule": "Nc1ncn([C@@H]2O[C@H](CO)[C@@H](O)[C@H]2O)c(=O)n1", "note": "[azacitidine]", "values": [{"measurement": "phagocytic index (ADCP)", "setting": "[1]", "value": "significantly higher than those of the blank control and the isotype control (human IgG4)"}]}, {"molecule": "penpulimab: anti-PD-1 antibody; heavy chain SEQ ID NO: 82, light chain SEQ ID NO: 84 [reference compound]", "values": [{"measurement": "secretion of IL-2 by PBMC cells", "setting": "[2]", "value": "can significantly stimulate the secretion of IL-2"}, {"measurement": "secretion of IFN-γ by PBMC cells", "setting": "[3]", "value": "can significantly stimulate the secretion of IFN-γ"}, {"measurement": "secretion of IL-2 by PBMC cells", "setting": "[4]", "value": "can significantly stimulate the secretion of IL-2"}]}, {"molecule": "rituximab: anti-human CD20 antibody (Roche) [reference compound]", "values": [{"measurement": "phagocytic index (ADCP)", "setting": "[5]", "value": "significantly higher than those of the blank control and the isotype control (human IgG4)"}]}, {"molecule": "B1", "values": [{"measurement": "binding result", "setting": "[6]", "value": "binds"}]}, {"molecule": "B2", "values": [{"measurement": "specific binding to CD47", "setting": "CD47 IgV TEV-His", "value": "capable of specifically binding to CD47"}, {"measurement": "competition with SIRPα ECD-hFc-Biotin for binding to CD47", "setting": "[7]", "value": "can compete with the receptor SIRPα ECD-hFc-Biotin for binding to CD47"}]}]}
